According to patent publication US8912181B2 (Taiho Pharmaceutical Co., Ltd., priority 2011, dated 2014):

Experiments:
[1] = test system: SK-BR-3 cells; assay: Determination of cell growth inhibition (crystal violet staining method); type: cell-based; conditions: Homo sapiens; breast cancer cells SK-BR-3, 72 hours culture with test substance
Method: Cell growth was assayed by a crystal violet staining method. SK-BR-3 cells (HTB-30) purchased from American Type Culture Collection were inoculated at a concentration of 5,000 cells/well to a 96-well plate (#353075, BD Biosciences). After culture at 37° C. for 24 hours in a 5% CO2 incubator, each test substance was added thereto, and the cells were further cultured for 72 hours. A 25% glutaraldehyde solution (#17025-25, Nacalai Tesque, Inc.) was added thereto at a concentration of 20 μL/well per 200 μL of the medium, and the plate was incubated at room temperature for 20 minutes to fix the cells. The plate was washed with water and dried. Then, a solution containing 0.05% crystal violet (#038-17792, Wako Pure Chemical Industries, Ltd.) and 20% methanol was added thereto at a concentration of 100 μL/well, and the plate was incubated at room temperature for 20 minutes to stain the cells. The plate was washed with water and dried. A mixed solution of 0.05 M NaH2PO4 and ethanol (mixed in equal amounts) was added thereto at a concentration of 100 μL/well. Absorbance was measured at 540 nm using a microplate reader (MTP-450, Corona Electric Co., Ltd.) and used as an index for the number of cells per well. Percent inhibition (%) of cell growth by each compound of the present invention was determined according to the formula shown below with the absorbance of no drug addition group as a control. […] Percent inhibition (%)=(C−T)/C×100, wherein T: Absorbance of well with test substance addition C: Absorbance of well without test substance addition.

[2] = biological target: human HSP90 alpha protein (N-terminal, amino acids 2 to 236) (Homo sapiens (Human), UniProt P07900); assay: Determination of HSP90-binding activity (AlphaScreen competitive assay with biotinylated geldanamycin); conditions: inhibition of binding of biotinylated geldanamycin to purified HSP90 N-terminal protein, read-out: HSP-binding activity IC50
Method: First, a purified HSP90 solution was prepared as follows: a human HSP90 alpha gene (NCBI Reference Sequence accession no. NM-005348) region corresponding to amino acids 2 to 236 of human HSP90 alpha protein (NCBI Reference Sequence accession no. NP-005339; full length: 732 amino acids) was inserted to pET-19b (Novagen; Merck KGaA) to construct a plasmid pET-HS[…] for expression of the HSP90 N-terminal protein having a His-tag at the N-terminus. E. coli (BL21(DE3), Stratagene Corp.) was transformed with pET-HS[…] and then cultured at 37° C. for 4 hours in the presence of 0.5 mM isopropyl-beta-D-thiogalactopyranoside (Sigma-Aldrich Corp.). The collected E. coli was suspended in a lysis buffer (50 mM Tris-HCl (pH 7.5), 200 mM NaCl) and sonicated. The sonicated cell solution was centrifuged (40,000×g, 20 minutes), and the supernatant was used as a crude extract. This crude extract was fractionated using Ni Sepharose High Performance (GE Healthcare Japan Corp.) chromatography and HiLoad 26/60 Superdex 75 pg (GE Healthcare Japan Corp.). Then, a fraction of HSP90 protein concentrates was prepared in a solution containing 50 mM Tris-HCl (pH 7.5) and 20% glycerol as a purified HSP90 solution. The purified HSP90 solution was divided and stored at -80° C. until use. HSP90-binding activity was determined by an AlphaScreen competitive assay system. […] After reaction at room temperature for 2 hours, biotinylated geldanamycin was added thereto at a concentration of 40 nM/well and further reacted for 1 hour. Detection mix (20 mM HEPES-KOH (pH 7.5), 0.5% BSA, 0.04 mg/mL Nickel Chelate Acceptor beads, 0.04 mg/mL Streptavidin-coated Donor beads) (#6760619C, PerkinElmer, Inc.) was added to each well in an amount equal to the amount of the reaction solution and reacted at room temperature for 1 hour in the dark. Then, fluorescence intensity was measured using Multilabel Plate Reader EnVision (PerkinElmer, Inc.). Percent inhibition (%) of the binding of biotinylated geldanamycin by each compound of the present invention was determined according to the formula shown below with the fluorescence signal of no test substance addition group as a control. […] Percent inhibition (%)=(C-T)/C×100, wherein T: Signal of well with test substance addition C: Signal of well without test substance addition.

| IC50 [1] [nM] | IC50 [2] [nM] | SMILES |
| --- | --- | --- |
| 8420 | > 100000 | NC(=O)c1ccc(-c2cccc3c(-c4cnc5ccccc5c4)nccc23)cc1NC1CCC(O)CC1 (stereo not shown) [Comp. Ex. 1, 2-(4-Hydroxycyclohexylamino)-4-(1-(quinolin-3-yl)isoquinolin-5-yl)benzamide, reference compound] |
| > 10000 | > 100000 | NC(=O)c1ccc(-c2cccc3c(-c4cnc5ccccc5c4)ncnc23)cc1NC1CCC(O)CC1 (stereo not shown) [Comp. Ex. 2, 2-(4-Hydroxycyclohexylamino)-4-(4-(quinolin-3-yl)quinazolin-8-yl)benzamide, reference compound] |
| 7630 | > 100000 | CCNc1cc(-c2cccc3c(-n4cnc(-c5cnn(C)c5)c4)nccc23)ccc1C(N)=O [Comp. Ex. 3, 2-(Ethylamino)-4-(1-(4-(1-methyl-1H-pyrazol-4-yl)-1H-imidazol-1-yl)isoquinolin-5-yl)benzamide, reference compound] |
| 120 |  | CCNc1cc(-c2nccc3c(-n4cnc(-c5cnn(C)c5)c4)cccc23)ccc1C(N)=O [Example 1, 2-(Ethylamino)-4-(5-(4-(1-methyl-1H-pyrazol-4-yl)-1H-imidazol-1-yl)isoquinolin-1-yl)benzamide] |
| 150 |  | NC(=O)c1ccc(-c2nccc3c(-c4cncc(N)c4)cccc23)cc1NC1CCC(O)CC1 (stereo not shown) [Example 2, 4-(5-(5-Aminopyridin-3-yl)isoquinolin-1-yl)-2-(4-hydroxycyclohexylamino)benzamide] |
| 10 | 190 | CCNc1cc(-c2cc(C(F)(F)F)nc3c(-n4cnc(-c5cnn(C)c5)c4)cccc23)ccc1C(N)=O [Example 3, 2-(Ethylamino)-4-(8-(4-(1-methyl-1H-pyrazol-4-yl)-1H-imidazol-1-yl)-2-(trifluoromethyl)quinolin-4-yl)benzamide] |
| 280 | 340 | Cn1cc(-c2cn(-c3cccc4c(-c5ccc(C(N)=O)c(N)c5)nc(C(F)(F)F)nc34)cn2)cn1 [Example 4, 2-Amino-4-(8-(4-(1-methyl-1H-pyrazol-4-yl)-1H-imidazol-1-yl)-2-(trifluoromethyl)quinazolin-4-yl)benzamide] |
| 90 | 1440 | CC(C)(C)Nc1cc(-c2cc(C(F)(F)F)nc3c(-c4cnc5ccccc5c4)cccc23)ccc1C(N)=O [Example 5, 2-(Tert-butylamino)-4-(2′-(trifluoromethyl)-3,8′-biquinolin-4′-yl)benzamide] |
| 30 | 170 | NC(=O)c1ccc(-c2nccc3c(-c4cnc5ccccc5c4)cccc23)cc1NC1CCC(O)CC1 (stereo not shown) [Example 6, 2-(4-Hydroxycyclohexylamino)-4-(5-(quinolin-3-yl)isoquinolin-1-yl)benzamide] |
| 10 | 150 | Cc1cc2c(-c3cnc4ccccc4c3)cccc2c(-c2ccc(C(N)=O)c(NC3CCC(O)CC3)c2)n1 (stereo not shown) [Example 7, 2-(4-Hydroxycyclohexylamino)-4-(3-methyl-5-(quinolin-3-yl)isoquinolin-1-yl)benzamide] |
| 20 | 100 | Cc1cc2c(-c3cnc4ccccc4c3)cccc2c(-c2ccc(C(N)=O)c(NC3CCC(O)CC3)c2)[n+]1[O-] (stereo not shown) [Example 8, 1-(4-Carbamoyl-3-(4-hydroxycyclohexylamino)phenyl)-3-methyl-5-(quinolin-3-yl)isoquinoline-2-oxide] |
| 50 | 270 | Cc1ccc2ncc(-c3cccc4c(-c5ccc(C(N)=O)c(NC6CCC(O)CC6)c5)nccc34)cc2c1 (stereo not shown) [Example 9, 2-(4-Hydroxycyclohexylamino)-4-(5-(6-methylquinolin-3-yl)isoquinolin-1-yl)benzamide] |
| 110 | 480 | Cc1ccc2cc(-c3cccc4c(-c5ccc(C(N)=O)c(NC6CCC(O)CC6)c5)nccc34)cnc2c1 (stereo not shown) [Example 11, 2-(4-Hydroxycyclohexylamino)-4-(5-(7-methylquinolin-3-yl)isoquinolin-1-yl)benzamide] |
| 170 | 70 | NC(=O)c1ccc(-c2nccc3c(-c4cnc5nc[nH]c5c4)cccc23)cc1NC1CCC(O)CC1 (stereo not shown) [Example 12] |
| 580 | 450 | NC(=O)c1ccc(-c2nccc3c(-c4cnc5nccnc5c4)cccc23)cc1NC1CCC(O)CC1 (stereo not shown) [Example 13, 2-(4-Hydroxycyclohexylamino)-4-(5-(pyrido[2,3-b]pyrazin-7-yl)isoquinolin-1-yl)benzamide] |
| 340 | 1500 | NC(=O)c1ccc(-c2nccc3c(-c4cnc5[nH]ccc5c4)cccc23)cc1NC1CCC(O)CC1 (stereo not shown) [Example 14, 4-(5-(1H-Pyrrolo[2,3-b]pyridin-5-yl)isoquinolin-1-yl)-2-(4-hydroxycyclohexylamino)benzamide] |
| 210 | 140 | NC(=O)c1ccc(-c2nccc3c(-c4cccnc4)cccc23)cc1NC1CCC(O)CC1 (stereo not shown) [Example 15, 2-(4-Hydroxycyclohexylamino)-4-(5-(pyridin-3-yl)isoquinolin-1-yl)benzamide] |
| 80 |  | NCC(=O)OC1CCC(Nc2cc(-c3nccc4c(-c5cnc6ccccc6c5)cccc34)ccc2C(N)=O)CC1 (stereo not shown) [Example 33, 4-(2-Carbamoyl-5-(5-(quinolin-3-yl)isoquinolin-1-yl)phenylamino)cyclohexyl-2-aminoacetate] |
| 110 |  | CC(C)Cn1cc(-c2cn(-c3cccc4c(-c5ccc(C(N)=O)c(NC6CCC(O)CC6)c5)nccc34)cn2)cn1 (stereo not shown) [Example 52, 2-(4-Hydroxycyclohexylamino)-4-(5-(4-(1-isobutyl-1H-pyrazol-4-yl)-1H-imidazol-1-yl)isoquinolin-1-yl)benzamide] |
| 480 |  | NC(=O)c1ccc(-c2nccc3c(-n4cnc(Br)c4)cccc23)cc1NC1CCC(O)CC1 (stereo not shown) [Example 54, 4-(5-(4-Bromo-1H-imidazol-1-yl)isoquinolin-1-yl)-2-(4-hydroxycyclohexylamino)benzamide] |
| 30 |  | Cn1cc(-c2cn(-c3cccc4c(-c5ccc(C(N)=O)c(NC6CCCCCC6)c5)nccc34)cn2)cn1 [Example 63, 2-(Cycloheptylamino)-4-(5-(4-(1-methyl-1H-pyrazol-4-yl)-1H-imidazol-1-yl)isoquinolin-1-yl)benzamide] |
| 10 |  | Cn1cc(-c2cn(-c3cccc4c(-c5ccc(C(N)=O)c(NCC6CC6)c5)cc(C(F)(F)F)nc34)cn2)cn1 [Example 65, 2-(Cyclopropylmethylamino)-4-(8-(4-(1-methyl-1H-pyrazol-4-yl)-1H-imidazol-1-yl)-2-(trifluoromethyl)quinolin-4-yl)benzamide] |
| 10 |  | CCNc1cc(-c2cc(C(F)(F)F)nc3c(-n4cnc(-c5cnn(C(F)F)c5)c4)cccc23)ccc1C(N)=O [Example 91, 4-(8-(4-(1-Difluoromethyl-1H-pyrazol-4-yl)-1H-imidazol-1-yl)-2-(trifluoromethyl)quinolin-4-yl)-2-(ethylamino)benzamide] |
|  | 100 | Cn1cc(-c2cn(-c3cccc4c(-c5ccc(C(N)=O)c(N)c5)cc(C5CC5)nc34)cn2)cn1 [Example 106, 2-Amino-4-(2-cyclopropyl-8-(4-(1-methyl-1H-pyrazol-4-yl)-1H-imidazol-1-yl)quinolin-4-yl)benzamide] |
| 240 |  | CC(C)(C)Nc1cc(-c2cc(C(F)(F)F)nc3c(-n4cnc(-c5ccccc5)c4)cccc23)ccc1C(N)=O [Example 107, 2-(Tert-butylamino)-4-(8-(4-phenyl-1H-imidazol-1-yl)-2-(trifluoromethyl)quinolin-4-yl)benzamide] |
